Values after ≈ are worked out from the molar mass of the structure shown. Positions of bridges follow the written chain, without caps; N, C: chain ends. Non-standard residues stand in square brackets, D forms with d. Residues, ends and D or L forms follow the SMILES beside them. Groups on a side chain read outwards from the residue. *: point of attachment. Palmitoyl(16-(5-tetrazolyl)) = O=C(CCCCCCCCCCCCCCCc1nnn[nH]1)*; Lys(CH2CO2H)2 = N[C@@H](CCCCN(CC(=O)O)CC(=O)O)C(=O)O; X1 = O=C(O)CCCCCCCCCCCCCCCCC(=O)NCCOCCOCCN*; C17 diacid = O=C(O)CCCCCCCCCCCCCCCC(=O)*; Orn = NCCC[C@H](N)C(=O)O; Dab = NCC[C@H](N)C(=O)O; Dap = NC[C@H](N)C(=O)O; AEEA = NCCOCCOCC(=O)O
What was measured:
physchem = test: physchem
Method: From a stock solution in vehicle, either H2O or 10 mM phosphate, containing 1 mg (as weighed) compound per ml, 8-11 aliquots are withdrawn and pH-adjusted individually with HCl/NaOH, to cover the whole pH range.

MC1 receptor = MC1 receptor (Homo sapiens, UniProt Q01726); test: biochemical
Method: Assay (IV)—Melanocortin Receptor 1 (MC1) Binding Assay
The MC1 receptor binding assay was performed on BHK cell membranes stably expressing the MC1 receptor. The assay was performed in a total volume of 250 μl: 25 μl of ^125NDP-α-MSH (22 pM in final concentration), 25 μl of test compound/control and 200 μl of cell membrane (25 μg/ml). Test compounds were dissolved in DMSO. Radioactively labeled ligand, membranes and test compounds were diluted in buffer: 25 mM HEPES, pH 7.4, 0.1 mM CaCl2, 1 mM MgSO4, 1 mM EDTA, 0.1% HSA and 0.005% Tween™ 20. Alternatively, HSA may be substituted with ovalbumin. The samples were incubated at 30° C. for 90 min. in Costar round-bottom microtiter plates. Incubation was terminated by filtration on a Packard harvester filtermate. Rapid filtration through Packard Unifilter-96 GF/B filters pre-treated with polyetylenimine (PerkinElmer 6005277). The filters were washed with ice-cold 0.9% NaCl 8-10 times. The plates were air-dried at app. 55° C. for 30 min, and 50 μl Microscint 0 (Packard, cat. No. 6013616) was added to each well. The plates were counted in a Topcounter (1 min/well).
The data were analysed by non-linear regression analysis of binding curves, using the Windows™ program GraphPad™ Prism (GraphPad Software, USA).

[1] = pH 7.4, Solubility Conc., pH 7.4, vehicle 10 mM phosphate
[2] = pH 7.5, Solubility Conc., pH 7.5, vehicle 10 mM phosphate
[3] = pH 7.7, Solubility Conc., pH 7.7, vehicle 10 mM phosphate

Sequence of MC1 receptor (Q01726 whole entry): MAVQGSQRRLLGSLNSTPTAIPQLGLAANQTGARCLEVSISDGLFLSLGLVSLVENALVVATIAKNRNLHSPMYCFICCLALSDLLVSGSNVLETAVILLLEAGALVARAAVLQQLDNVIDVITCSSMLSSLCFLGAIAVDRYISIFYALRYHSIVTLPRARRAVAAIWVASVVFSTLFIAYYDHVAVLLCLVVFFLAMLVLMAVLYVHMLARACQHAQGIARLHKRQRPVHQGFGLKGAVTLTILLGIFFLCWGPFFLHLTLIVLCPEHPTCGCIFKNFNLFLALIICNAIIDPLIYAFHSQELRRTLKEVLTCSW

| SMILES | solubility (physchem; pH 7, Solubility Conc.) | solubility (physchem; pH 7.3, Solubility Conc.) | solubility (physchem; pH 7.4, Solubility Conc.) | solubility (physchem; pH 7.5, Solubility Conc.) | solubility (physchem; pH 7.6, Solubility Conc.) | solubility (physchem; pH 7.7, Solubility Conc.) | Ki (MC1 receptor) | solubility (physchem; pH 6.4, Solubility Conc.) | solubility (physchem; pH 6.7, Solubility Conc.) | solubility (physchem; pH 7.9, Solubility Conc.) | solubility (physchem; pH 8.2, Solubility Conc.) | solubility (physchem; [1]) | solubility (physchem; [2]) | solubility (physchem; [3]) | further results |
| --- | --- | --- | --- | --- | --- | --- | --- | --- | --- | --- | --- | --- | --- | --- | --- |
| CC(=O)N[C@H]1CC(=O)NC[C@@H](C(=O)N2CCC[C@H]2C(=O)N2CCC[C@H]2C(=O)N[C@@H](CCCNC(=N)N)C(=O)N[C@@H](CC(=O)O)C(=O)N[C@@H](CCCCN(CC(=O)O)CC(=O)O)C(=O)N[C@@H](CCCCNC(=O)COCCOCCNC(=O)CCCCCCCCCCCCCCCc2nnn[nH]2)C(N)=O)NC(=O)[C@H](Cc2c[nH]c3ccccc23)NC(=O)[C@H](CCCNC(=N)N)NC(=O)[C@@H](Cc2ccccc2)NC(=O)[C@H](Cc2c[nH]cn2)NC1=O [Example 41, Ac-c[Asp-His-D-Phe-Arg-Trp-Dap]-Pro-Pro-Arg-Asp-Lys(biscarboxymethyl)-Lys[(2-{2-[16-(tetrazol-5-yl)hexadecanoylamino]ethoxy}ethoxy)acetyl]-NH2] (Ac-DH[dF]RW[Dap]PPRD[Lys(CH2CO2H)2]K([AEEA-Palmitoyl(16-(5-tetrazolyl))])-NH2; lactam 1-6) | 39 µM (≈ 84.2 µg/mL) | 87 µM (≈ 188 µg/mL) | 160 µM (≈ 345 µg/mL) | 387 µM (≈ 835 µg/mL) | 497 µM (≈ 1070 µg/mL) | 478 µM (≈ 1030 µg/mL) | > 10 µM |  |  |  |  |  |  |  | solubility (physchem; pH 7.8, Solubility Conc.): 451 µM (≈ 973 µg/mL); solubility (physchem; pH 8, Solubility Conc.): 493 µM (≈ 1060 µg/mL) |
| CC(=O)N[C@H]1CCCCNC(=O)C[C@@H](C(=O)N2CCC[C@H]2C(=O)N2CCC[C@H]2C(=O)N[C@@H](Cc2c[nH]cn2)C(=O)N[C@@H](CO)C(=O)N[C@@H](CCCCN(CC(=O)O)CC(=O)O)C(=O)N[C@@H](CO)C(=O)N[C@@H](CO)C(=O)N[C@@H](CCC(=O)O)C(=O)N[C@@H](CCCCNC(=O)COCCOCCNC(=O)CCCCCCCCCCCCCCCC(=O)O)C(N)=O)NC(=O)[C@H](Cc2c[nH]c3ccccc23)NC(=O)[C@H](CCCNC(=N)N)NC(=O)[C@@H](Cc2ccccc2)NC(=O)[C@H](Cc2c[nH]cn2)NC1=O [Example 45, Ac-c[Lys-His-D-Phe-Arg-Trp-Asp]-Pro-Pro-His-Ser-Lys(biscarboxymethyl)-Ser-Ser-Glu-Lys({2-[2-(16-carboxyhexadecanoylamino)ethoxy]ethoxy}acetyl)-NH2] (Ac-KH[dF]RWDPPHS[Lys(CH2CO2H)2]SSEK([AEEA-C17 diacid])-NH2; lactam 1-6) | 370 µM (≈ 900 µg/mL) | 391 µM (≈ 951 µg/mL) |  | 380 µM (≈ 924 µg/mL) |  | 379 µM (≈ 922 µg/mL) | > 10 µM | 199 µM (≈ 484 µg/mL) | 334 µM (≈ 813 µg/mL) | 391 µM (≈ 951 µg/mL) |  |  |  |  | solubility (physchem; pH 6.8, Solubility Conc.): 350 µM (≈ 851 µg/mL); solubility (physchem; pH 8.1, Solubility Conc.): 400 µM (≈ 973 µg/mL) |
| CC(=O)N[C@H]1CCCNC(=O)CC[C@@H](C(=O)N2CCC[C@H]2C(=O)N[C@@H](CO)C(=O)N[C@@H](CCCCN)C(=O)N[C@@H](CCC(=O)O)C(=O)N[C@@H](CCC(=O)O)C(=O)N[C@@H](CO)C(=O)N[C@@H](CO)C(=O)N[C@@H](CCC(=O)O)C(=O)N[C@@H](CCCCNC(=O)COCCOCCNC(=O)CCCCCCCCCCCCCCCC(=O)O)C(N)=O)NC(=O)[C@H](Cc2c[nH]c3ccccc23)NC(=O)[C@H](CCCNC(=N)N)NC(=O)[C@@H](Cc2ccccc2)NC(=O)[C@H](Cc2c[nH]cn2)NC1=O [Example 20] (Ac-[Orn]H[dF]RWEPSKEESSEK([AEEA-C17 diacid])-NH2; lactam 1-6) | 420 µM (≈ 983 µg/mL) | 433 µM (≈ 1010 µg/mL) |  |  | 429 µM (≈ 1000 µg/mL) |  | > 10 µM | 410 µM (≈ 960 µg/mL) | 416 µM (≈ 974 µg/mL) | 398 µM (≈ 932 µg/mL) | 439 µM (≈ 1030 µg/mL) |  |  |  | solubility (physchem; pH 6, Solubility Conc.): 192 µM (≈ 449 µg/mL); solubility (physchem; pH 6.3, Solubility Conc.): 399 µM (≈ 934 µg/mL) |
| CC(=O)N[C@H]1CCNC(=O)C[C@@H](C(=O)N2CCC[C@H]2C(=O)N2CCC[C@H]2C(=O)N[C@@H](CCCNC(=N)N)C(=O)N[C@@H](CCC(=O)O)C(=O)N[C@@H](CCCCN(CC(=O)O)CC(=O)O)C(=O)N[C@@H](CO)C(=O)N[C@@H](CO)C(=O)NCCOCCOCCNC(=O)CCCCCCCCCCCCCCCCC(=O)O)NC(=O)[C@H](Cc2c[nH]c3ccccc23)NC(=O)[C@H](CCCNC(=N)N)NC(=O)[C@@H](Cc2ccccc2)NC(=O)[C@H](Cc2c[nH]cn2)NC1=O [Example 9, Ac-c[Dab-His-D-Phe-Arg-Trp-Asp]-Pro-Pro-Arg-Glu-Lys(biscarboxymethyl)-Ser-Ser-NH(2-{2-[2-(17-carboxyheptadecanoylamino)ethoxy]ethoxy}ethyl)] (Ac-[Dab]H[dF]RWDPPRE[Lys(CH2CO2H)2]SS-X1; lactam 1-6) |  | 158 µM (≈ 349 µg/mL) | 183 µM (≈ 404 µg/mL) |  |  | 242 µM (≈ 534 µg/mL) | > 10 µM |  |  | 259 µM (≈ 572 µg/mL) | 280 µM (≈ 618 µg/mL) |  |  |  | solubility (physchem; pH 4.7, Solubility Conc.): 26 µM (≈ 57.4 µg/mL); solubility (physchem; pH 5.2, Solubility Conc.): 22 µM (≈ 48.6 µg/mL); solubility (physchem; pH 5.3, Solubility Conc.): 40 µM (≈ 88.3 µg/mL); solubility (physchem; pH 6.6, Solubility Conc.): 79 µM (≈ 174 µg/mL) |
| CC(=O)N[C@H]1CCCCNC(=O)C[C@@H](C(=O)N2CCC[C@H]2C(=O)N[C@@H](CO)C(=O)N[C@@H](CO)C(=O)N[C@@H](CO)C(=O)N[C@@H](CCCCN(CC(=O)O)CC(=O)O)C(=O)N[C@@H](CO)C(=O)N[C@@H](CO)C(=O)NCCOCCOCCNC(=O)CCCCCCCCCCCCCCCCC(=O)O)NC(=O)[C@H](Cc2c[nH]c3ccccc23)NC(=O)[C@H](CCCNC(=N)N)NC(=O)[C@@H](Cc2ccccc2)NC(=O)[C@H](Cc2c[nH]cn2)NC1=O [Example 53, Ac-c[Lys-His-D-Phe-Arg-Trp-Asp]-Pro-Ser-Ser-Ser-Lys(biscarboxymethyl)-Ser-Ser-NH(2-{2-[2-(17-carboxyheptadecanoylamino)ethoxy]ethoxy}ethyl)] (Ac-KH[dF]RWDPSSS[Lys(CH2CO2H)2]SS-X1; lactam 1-6) |  |  |  |  |  |  | > 10 µM |  |  |  |  | 410 µM (≈ 867 µg/mL) | 385 µM (≈ 814 µg/mL) | 393 µM (≈ 831 µg/mL) | solubility (physchem; pH 6.6, Solubility Conc., pH 6.6, vehicle 10 mM phosphate): 82 µM (≈ 173 µg/mL); solubility (physchem; pH 6.9, Solubility Conc., pH 6.9, vehicle 10 mM phosphate): 159 µM (≈ 336 µg/mL); solubility (physchem; pH 7.2, Solubility Conc., pH 7.2, vehicle 10 mM phosphate): 337 µM (≈ 713 µg/mL); solubility (physchem; pH 7.3, Solubility Conc., pH 7.3, vehicle 10 mM phosphate): 396 µM (≈ 838 µg/mL); solubility (physchem; pH 7.9, Solubility Conc., pH 7.9, vehicle 10 mM phosphate): 425 µM (≈ 899 µg/mL); solubility (physchem; pH 8.2, Solubility Conc., pH 8.2, vehicle 10 mM phosphate): 403 µM (≈ 853 µg/mL) |
| CC(=O)N[C@H]1CCCNC(=O)CC[C@@H](C(=O)N2CCC[C@H]2C(=O)N[C@@H](CO)C(=O)N[C@@H](CO)C(=O)N[C@@H](CO)C(=O)N[C@@H](CCCCN(CC(=O)O)CC(=O)O)C(=O)N[C@@H](CO)C(=O)N[C@@H](CO)C(=O)N[C@@H](CCCCNC(=O)COCCOCCNC(=O)CCCCCCCCCCCCCCCC(=O)O)C(N)=O)NC(=O)[C@H](Cc2c[nH]c3ccccc23)NC(=O)[C@H](CCCNC(=N)N)NC(=O)[C@@H](Cc2ccccc2)NC(=O)[C@H](Cc2c[nH]cn2)NC1=O [Example 57, Ac-c[Orn-His-D-Phe-Arg-Trp-Glu]-Pro-Ser-Ser-Ser-Lys(biscarboxymethyl)-Ser-Ser-Lys({2-[2-(16-carboxyhexadecanoylamino)ethoxy]ethoxy}acetyl)-NH2] (Ac-[Orn]H[dF]RWEPSSS[Lys(CH2CO2H)2]SSK([AEEA-C17 diacid])-NH2; lactam 1-6) |  |  |  |  |  |  | > 10 µM |  |  |  |  | 169 µM (≈ 379 µg/mL) | 395 µM (≈ 886 µg/mL) | 408 µM (≈ 915 µg/mL) | solubility (physchem; pH 6.8, Solubility Conc., pH 6.8, vehicle 10 mM phosphate): 47 µM (≈ 105 µg/mL); solubility (physchem; pH 7.1, Solubility Conc., pH 7.1, vehicle 10 mM phosphate): 79 µM (≈ 177 µg/mL); Solubility Conc. (physchem; pH 7.5, vehicle 10 mM phosphate): 284 µM (≈ 637 µg/mL); solubility (physchem; pH 7.6, Solubility Conc., pH 7.6, vehicle 10 mM phosphate): 521 µM (≈ 1170 µg/mL); solubility (physchem; pH 7.8, Solubility Conc., pH 7.8, vehicle 10 mM phosphate): 524 µM (≈ 1180 µg/mL); solubility (physchem; pH 8, Solubility Conc., pH 8.0, vehicle 10 mM phosphate): 392 µM (≈ 879 µg/mL) |
